Results on 53 compounds are retold here after patent publication US9232799B2, “N-[(het)arylethyl)] pyrazole(thio)carboxamides and their heterosubstituted analogues” (BAYER INTELLECTUAL PROPERTY GMBH, priority 2010, dated 2016).

Several values for one entry are separate records, joined by “and”; a condition that tells them apart may be missing. Equal values may be shown once.

The test system of one data set is Alternaria solani. Kind of data set: In vivo preventive test on Alternaria solani (tomato). The note with it: 100 ppm of active ingredient, evaluated 7 days after inoculation. The text has this:
One day after this treatment, the plants are inoculated with an aqueous spore suspension of Alternaria solani.
For the compound `COC(CNC(=O)c1cn(C)nc1C(F)F)c1ccc(Cl)cc1Cl` (stereo not shown) [1.02 from WO-2008/148570, N-[2-(2,4-dichlorophenyl)-2-methoxyethyl]-3-(difluoromethyl)-1-methyl-1H-pyrazole-4-carboxamide, reference compound], the Efficacy was 40%.

The same data set, now with this note: 100 ppm of active ingredient, evaluated 7 days after inoculation, listed as 1.02.
On to `COC(CNC(=O)c1cn(C)nc1C(F)F)c1ccc(Cl)cc1Cl` (stereo not shown) [1.02 from WO-2008/148570, N-[2-(2,4-dichlorophenyl)-2-methoxyethyl]-3-(difluoromethyl)-1-methyl-1H-pyrazole-4-carboxamide, reference compound], for which the Efficacy result is “less than 40%”.

The data set is the same for the next values; noted with them: 500 ppm of active ingredient, evaluated 7 days after inoculation.
Compound `Cn1nc(C(F)F)c(C(=O)NCCc2cccc(Oc3ccccc3)c2)c1Cl` [Example 145] yielded an Efficacy of 95%.

Compound `Cn1nc(C(F)F)c(C(=O)NCC(C)(C)c2ccccc2Cl)c1Cl` [Example 46] gave an Efficacy of 70%.

Consider `Cn1nc(C(F)F)c(C(=O)NC(C)(C)Cc2cccc(Oc3ccccc3)c2)c1Cl` [Example 144], for which the Efficacy was determined as 95%.

`Cn1nc(C(F)F)c(C(=O)NCCc2ccccc2Oc2ccccc2)c1Cl` [Example 141]: the Efficacy turned out to be 80%.

With `Cn1nc(C(F)F)c(C(=O)NCC(C)(C)c2ccc(Cl)cc2)c1Cl` [Example 64], the Efficacy turned out to be 100%.

Take `COC(CNC(=O)c1cn(C)nc1C(F)F)c1ccc(Cl)cc1Cl` (stereo not shown) [1.02 from WO-2008/148570, N-[2-(2,4-dichlorophenyl)-2-methoxyethyl]-3-(difluoromethyl)-1-methyl-1H-pyrazole-4-carboxamide, reference compound]: the Efficacy came out at 80%.

Still in this data set, the particulars now being: 500 ppm of active ingredient, evaluated 7 days after inoculation, listed as 1.02.
As to `COC(CNC(=O)c1cn(C)nc1C(F)F)c1ccc(Cl)cc1Cl` (stereo not shown) [1.02 from WO-2008/148570, N-[2-(2,4-dichlorophenyl)-2-methoxyethyl]-3-(difluoromethyl)-1-methyl-1H-pyrazole-4-carboxamide, reference compound], the Efficacy entry is reported as “at least 80%”.

System in another data set: not listed separately
Kind of data set: logP by HPLC on reversed-phase column (C 18), EEC Directive 79/831 Annex V.A8.
Details: not given
In kind it is physicochemical. As for the experimental part: In table 1, the logP values were determined in accordance with EEC Directive 79/831 Annex V.A8 by HPLC (High Performance Liquid Chromatography) on a reversed-phase column (C 18), using the method described below: Temperature: 40° C.; […]
As usually defined, the logP is the decadic logarithm of the partition coefficient of the neutral form, usually between octanol and water. Low values mean lower lipophilicity, high ones higher lipophilicity. `Cn1nc(C(F)F)c(C(=O)N(CCc2ccccc2)C2CCCC2)c1Cl` [Example 6] yielded a log partition coefficient (logP) of 3.89.

With `Cn1nc(C(F)F)c(C(=O)NCCc2cccc(Oc3ccccc3)c2)c1Cl` [Example 145], the logP was 3.55.

In turn, `Cn1nc(C(F)F)c(C(=O)N(CCc2ccncc2)C2CCCC2)c1F` [Example 201] yielded a lipophilicity (logP) of 1.20.

For `Cn1nc(C(F)F)c(C(=O)NCC(C)(C)c2ccccc2Cl)c1Cl` [Example 46], the logP was 3.48.

On to `COc1ccc(CCN(C)C(=O)c2c(C(F)F)nn(C)c2Cl)cc1OC` [Example 131], for which the logP stood at 2.18.

Compound `COc1ccc(CCN(C(=O)c2c(C(F)F)nn(C)c2F)C2CCCCC2)cc1OC` [Example 130] had a log partition coefficient (logP) of 3.42.

`CC(C)N(CCc1ccccn1)C(=O)c1c(C(F)F)nn(C)c1Cl` [Example 182] displayed a logP of 1.00.

`Cn1nc(C(F)F)c(C(=O)NCC(C)(C)c2cccc(Oc3ccccc3)c2)c1F` [Example 148] registered a logP of 3.92.

As for `Cn1nc(C(F)F)c(C(=O)NCCc2ccc(Cl)nc2)c1F` [Example 197], the logP is recorded as 1.78.

As for `Cn1nc(C(F)F)c(C(=O)NCCc2c(F)c(F)nc(F)c2F)c1Cl` [Example 209], the logP stood at 2.60.

For the compound `CC(C)N(CCc1ccncc1)C(=O)c1c(C(F)F)nn(C)c1Cl` [Example 205], the log partition coefficient (logP) stood at 0.98.

In turn, `Cn1nc(C(F)F)c(C(=O)N(CCC#N)CCc2ccccc2)c1Cl` [Example 8] showed a logP of 2.53.

For `Cn1nc(C(F)F)c(C(=O)NC2CC2c2ccccc2C(F)(F)F)c1Cl` (stereo not shown) [Example 226], the logP is recorded as 3.15.

`CC(C)N(CCc1ccc(F)cc1)C(=O)c1c(C(F)F)nn(C)c1Cl` [Example 25] showed a logP of 3.37.

In turn, `Cn1nc(C(F)F)c(C(=O)NC(C)(C)Cc2cccc(Oc3ccccc3)c2)c1Cl` [Example 144] yielded a lipophilicity (logP) of 4.30.

The compound `COCCN(CCc1ccncc1)C(=O)c1c(C(F)F)nn(C)c1F` [Example 199] returned a lipophilicity (logP) of 1.56.

`CC(C)N(CCc1ccncc1)C(=O)c1c(C(F)F)nn(C)c1F` [Example 198] registered a logP of 0.78.

Turning to `Cn1nc(C(F)F)c(C(=O)NC2CC2c2ccc(F)cc2)c1Cl` (stereo not shown) [Example 221], the log partition coefficient (logP) turned out to be 2.75.

Take `Cn1nc(C(F)F)c(C(=O)N(CCc2ccccn2)C2CCCC2)c1F` [Example 176]: the log partition coefficient (logP) is reported as 1.29.

For the compound `Cn1nc(C(F)F)c(C(=O)NCCc2ccccc2Oc2ccccc2)c1Cl` [Example 141], the logP is recorded as 3.64.

`Cn1nc(C(F)F)c(C(=O)N(CCc2ccccc2)CC(F)(F)F)c1Cl` [Example 10] registered a logP of 3.39.

`Cn1nc(C(F)F)c(C(=O)NC2CCCCC2c2ccccc2)c1Cl` (stereo not shown) [Example 214]: the logP was found to be 3.33.

Compound `Cn1nc(C(F)F)c(C(=O)NCC(C)(C)c2cccc(Cl)c2)c1Cl` [Example 54] had a logP of 3.53.

`Cc1cc(C)c(CCN(C(=O)c2c(C(F)F)nn(C)c2Cl)C(C)C)c(C)c1` [Example 136] had a log partition coefficient (logP) of 4.49.

In the case of `Cn1nc(C(F)F)c(C(=O)N(CCc2ccncc2)C2CCCCC2)c1Cl` [Example 203], the logP came to 1.50.

The compound `Cn1nc(C(F)F)c(C(=O)NC2CC2c2cccc(F)c2)c1Cl` (stereo not shown) [Example 223] returned a logP of 2.75.

`Cn1nc(C(F)F)c(C(=O)NCC(C)(C)c2cccc(Oc3ccccc3)c2)c1Cl` [Example 149] came in with a logP of 4.15.

As to `CN(CCc1ccccn1)C(=O)c1c(C(F)F)nn(C)c1Cl` [Example 183], the logP was determined as 1.63.

On to `Cn1nc(C(F)F)c(C(=O)NCC(C)(C)c2ccc(Cl)cc2)c1Cl` [Example 64], for which the log partition coefficient (logP) was determined as 3.58.

`Cn1nc(C(F)F)c(C(=O)N(CCc2ccccc2)C2CCCC2)c1F` [Example 1] had a logP of 3.69.

With `CC(C)N(CCc1ccc(F)cc1)C(=O)c1c(C(F)F)nn(C)c1F` [Example 23], the logP stood at 3.23.

`Cn1nc(C(F)F)c(C(=O)N(C[Si](C)(C)c2ccc3ccccc3c2)C2CC2)c1Cl` [Example 246] showed a lipophilicity (logP) of 4.51.

Consider `Cn1nc(C(F)F)c(C(=O)N(CCc2ccccn2)C2CCCCC2)c1Cl` [Example 180], for which the lipophilicity (logP) amounted to 1.58.

Regarding `Cc1cc(C)c(CCN(C(=O)c2c(C(F)F)nn(C)c2F)C(C)C)c(C)c1` [Example 134], the logP was found to be 4.30.

In turn, `CC(CN(C)C(=O)c1c(C(F)F)nn(C)c1F)c1ccncc1` (stereo not shown) [Example 206] yielded a log partition coefficient (logP) of 1.60.

The compound `COc1ccc(CCN(C(=O)c2c(C(F)F)nn(C)c2Cl)C2CCCCC2)cc1OC` [Example 132] showed a logP of 3.53.

In turn, `CC(C)N(CCc1ccccn1)C(=O)c1c(C(F)F)nn(C)c1F` [Example 178] gave a log partition coefficient (logP) of 0.85.

For the compound `Cn1nc(C(F)F)c(C(=O)N(CCc2ccccn2)C2CCCC2)c1Cl` [Example 181], the logP turned out to be 1.40.

The compound `COCCN(CCc1ccccn1)C(=O)c1c(C(F)F)nn(C)c1Cl` [Example 184] came in with a logP of 0.63.

For `Cn1nc(C(F)F)c(C(=O)N(CCC#N)CCc2ccccc2)c1F` [Example 3], the lipophilicity (logP) stood at 2.39.

`Cn1nc(C(F)F)c(C(=O)N(CCc2ccncc2)C2CCCC2)c1Cl` [Example 204] displayed a logP of 1.32.

Compound `CC(C)N(CCc1ccccc1)C(=O)c1c(C(F)F)nn(C)c1F` [Example 2] registered a logP of 3.19.

Compound `Cc1cccnc1CC(NC(=O)c1c(C(F)F)nn(C)c1Cl)C(F)(F)F` (stereo not shown) [Example 186] came in with a logP of 1.70.

For the compound `CC(C)N(CCc1ccccc1)C(=O)c1c(C(F)F)nn(C)c1Cl` [Example 7], the logP is reported as 3.35.

On to `CN(CCc1ccccn1)C(=O)c1c(C(F)F)nn(C)c1F` [Example 179], for which the log partition coefficient (logP) is 1.47.

Consider `CN(CC(=O)c1ccc(Cl)cc1)C(=O)c1c(C(F)F)nn(C)c1Cl` [Example 62], for which the lipophilicity (logP) came out at 2.68.

As for `COCCN(CCc1ccccn1)C(=O)c1c(C(F)F)nn(C)c1F` [Example 177], the log partition coefficient (logP) amounted to 0.50.

Compound `CCN(C(=O)c1c(C(F)F)nn(C)c1Cl)C(C)C(=O)c1ccccc1` (stereo not shown) [Example 18] registered a logP of 2.71.

With `Cn1nc(C(F)F)c(C(=O)N(CCc2ccccn2)C2CCCCC2)c1F` [Example 175], the logP is given as 1.48.

The compound `Cn1nc(C(F)F)c(C(=O)NCCc2ccc(Cl)nc2)c1Cl` [Example 196] yielded a log partition coefficient (logP) of 1.90.

On to `Cn1nc(C(F)F)c(C(=O)N(CCc2ccncc2)C2CCCCC2)c1F` [Example 200], for which the logP came to 1.39.

The data set is the same for the next values; noted with them: HPLC on reversed-phase column (C 18), 40° C., 0.1% aqueous formic acid and acetonitrile, linear gradient 10% to 90% acetonitrile.
For `Cn1nc(C(F)F)c(C(=S)N(C2CC2)C2CCCCC2(C)c2ccccc2)c1F` (mixture of isomers) [Example 219], the lipophilicity (logP) was 5.01 and 5.11.
